Molecules are shown by their SMILES. Entries after “also recorded” stand apart in the source; their conditions may differ. Bounds are passed on as bounds.

The subject of data set [1] is MDA MB 231 tumours. Briefly: Human tumour xenograft study. It counts as in vivo, SCID Hairless Outbred (SHO) mice. How it is done: In Vivo Evaluation of Compound 6 in a Human Tumour Xenograft Study
Therefore, it was decided to carry out a preliminary in vivo efficacy study in mice to evaluate the ability of the molecule to reduce the tumour volume in MDA MB 231 tumour bearing mice. The in vivo tumour xenograft study was carried out in SCID Hairless Outbred (SHO) mice, using an intravenous (IV) dosing regimen.
(§1) MDA-MB231 cells were mixed with matrigel (Geltrex, Gibco) before implantation into mice. For tumour generation, 5 million cells in a 50% matrigel mixture were inoculated subcutaneously on both flanks of 8 weeks old SCID Hairless Outbred (SHO) mice purchased from Charles River (Germany). […] The injections were repeated on day 3 and day 5. The sizes of the tumours were regularly measured using a caliper every 2 days. The tumour size of the treated mice was compared with that of the control group (7 untreated mice).
For orientation: A xenograft is tissue or cells of one species grown in another, often human tumour cells in immunodeficient mice.

A short description of data set [2]: General toxicity and weight of treated xenograft mice. It counts as in vivo.
Excerpt: as §1
The days of dosing are indicated by vertical dashed lines.

The test system of data set [3] is STAT3 and STAT3-dependent genes. Briefly: RT-PCR expression of STAT3 and STAT3-dependent genes in LPS-stimulated MDA-MB-231 cells. Type of data set: cell-based, human. The following applies: 25 μM, 8 hours, MDA-MB-231 stimulated with 500 μg/mL LPS. The method, then:
Effect of Compounds of the Invention on Expression of STAT3 and STAT3-Dependent Genes.
To probe the STAT3-specific cytotoxicity of the mature ligands, the mRNA expression profile of STAT3 and some STAT3 target genes (i.e., bcl-2, cyclin D1, and fascin) were compared to the reference gene GAPDH using a RT-PCR assay. Initially, the MDA-MB-231 cells were stimulated with 500 μg/mL LPS for 24 hours at 37° C. Following this, the compounds were added at 25 μM to the cells and incubated for another 8 hours at 37° C. Finally, PCR was used to determine changes in the gene expression profiles between stimulated-untreated and stimulated-treated cells.

The subject of data set [4] is A4 (STAT3-null) cancer cell line. Briefly: MTT cell viability assay, A4. It counts as cell-based. The settings on record: exposure (table title). A general note: Tetrazolium assays rely on reduction of a dye to a coloured formazan, in cell work by metabolically active cells.
Data set [5] has as its target unphosphorylated STAT3 monomer (uSTAT3) SH2 domain (Homo sapiens, UniProt P40763). Briefly: Fluorescence polarisation assay for the inhibition of STAT3 dimerisation. It counts as binding. The following applies: 350 nM uSTAT3, 10 nM FAM-pYLPQTV, 100 μM ligand; average of triplicate. (In general: Polarisation of emitted light reports the rotation of a fluorescent probe.)

Data set [6] has as its system MDA-MB-231 breast (STAT3-dependent) cancer cell line. Briefly: MTT cell viability assay, MDA-MB-231. Type of data set: cell-based, human. The following applies: MTT; 48 hours exposure (table title).
In data set [7] the test system is STAT3 dependent cells. The settings on record: STAT3 dependent cells as compared to STAT3-null cells; cited from earlier work.
The subject of data set [8] is STAT3. The settings on record: following IL-6 stimulation; cited from earlier work.
The subject of data set [9] is STAT3. Briefly: STAT3 dimerization inhibition (unpublished results). The settings on record: applicants' unpublished results. The text has this:
herein designated RH-06, was identified as being a novel small molecule inhibitor.

The mark [10] stands for this setting: 0.5 mg/Kg IV on days 1, 3 and 5.

Chain of unphosphorylated STAT3 monomer (uSTAT3) SH2 domain (P40763 whole entry, the tested form may be a part): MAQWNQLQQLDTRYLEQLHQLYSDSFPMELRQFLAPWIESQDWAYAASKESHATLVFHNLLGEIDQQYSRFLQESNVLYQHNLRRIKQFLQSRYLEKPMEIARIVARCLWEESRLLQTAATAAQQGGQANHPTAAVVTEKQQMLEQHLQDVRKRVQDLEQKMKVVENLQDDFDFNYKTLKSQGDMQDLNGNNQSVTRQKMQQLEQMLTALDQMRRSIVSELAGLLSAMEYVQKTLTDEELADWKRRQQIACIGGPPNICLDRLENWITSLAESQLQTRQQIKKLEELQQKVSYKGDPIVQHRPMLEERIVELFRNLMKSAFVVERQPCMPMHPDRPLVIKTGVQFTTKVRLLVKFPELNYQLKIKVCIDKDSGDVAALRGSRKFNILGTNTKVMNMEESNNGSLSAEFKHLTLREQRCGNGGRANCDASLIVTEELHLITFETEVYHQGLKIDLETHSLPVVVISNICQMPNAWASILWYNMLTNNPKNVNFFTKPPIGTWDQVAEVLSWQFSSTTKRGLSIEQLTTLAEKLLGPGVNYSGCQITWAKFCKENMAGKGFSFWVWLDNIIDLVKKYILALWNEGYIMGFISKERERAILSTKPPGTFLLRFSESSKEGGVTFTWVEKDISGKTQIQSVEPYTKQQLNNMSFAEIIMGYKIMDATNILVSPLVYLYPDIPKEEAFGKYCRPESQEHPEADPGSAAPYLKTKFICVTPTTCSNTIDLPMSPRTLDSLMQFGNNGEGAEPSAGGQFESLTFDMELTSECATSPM

A word on the IC50: it is the concentration at which inhibition is half-maximal. What is called inhibition is the share of the control response that was lost under treatment. On to `COC(=O)c1ccc(N(C)S(=O)(=O)c2cc(C(=O)NCc3ccc(CN4CCCCC4)cc3)sc2-c2ccnc(N3CCNCC3)c2)cc1` [Compound 6, methyl 4-((N-methyl-2-(2-(piperazin-1-yl)pyridin-4-yl)-5-((4-(piperidin-1-ylmethyl)benzyl)carbamoyl)thiophene)-3-sulfonamido)benzoate], for which the “tumour volume compared to the control group” value in data set [1] (0.5 mg/Kg IV (tail vein) on days 1, 3 and 5) is “significant reduction; also recorded: remained low and near the baseline”. In addition, the “tumour volume after dosing was stopped” value in data set [1] (after dosing stopped on day 5, 0.5 mg/Kg IV) is on record as “no significant increase in tumour volume”. In data set [2] (setting [10]), the “organ changes after sacrifice” value is listed as “no organ changes were observed”; the signs of toxicity result was “did not show any signs of toxicity”; the “weight of the treated mice” value is on record as “initially lost some weight post-treatment, but regained the weight after 14 days”. Moreover, the “survival of treated mice” value in [2] (SCID Hairless Outbred (SHO), mouse, in vivo) is reported as at least 21 days. In data set [3], the “Bcl-2 mRNA expression (RT-PCR)” value is “very weak expression”, the “STAT1 mRNA expression (RT-PCR)” value is on record as “without showing any effect”, the “STAT3 mRNA expression (RT-PCR)” value is recorded as “Almost no expression” and the “cyclin D1 mRNA expression (RT-PCR)” value was “Almost no expression”. Also, in data set [3], the “fascin mRNA expression (RT-PCR)” value is reported as “Almost no expression” and the “house-keeping gene GAPDH mRNA expression (RT-PCR)” value is given as “without showing any effect”. In data set [4], the IC50 amounted to 73.2 µM. The inhibition at 100 µM in data set [5] is above 50%. In addition, the “IC50 (MDA-MB-231)” value in data set [6] is given as “sub-micromolar”.

In the case of `Cc1ccc(-c2sc(C(=O)NCc3cccs3)cc2S(=O)(=O)N2CCCC2)cc1` [RH-06], in [7], the cytostatic effect result is listed as “selectively cytostatic”. Further, the “phosphorylation of STAT3” value in [8] is “selectively inhibited phosphorylation of STAT3”. In data set [5], the inhibition at 100 µM came out at 24.2%. The STAT3 dimerization result in [9] was “inhibits STAT3 dimerization”.

The values are drawn from US20200216432A1, “SULFONAMIDE DERIVATIVES AS STAT3 INHIBITORS FOR THE TREATMENT OF PROLIFERATIVE DISEASES” (King's College London, priority 2017, published 2020).
